These results are taken from the METLIN SMRT retention time set (Domingo-Almenara et al. 2019).

The structures appear in SMILES notation.

A short description of this series: gradient 5% acetonitrile 3 min, to 50% in 2 min, to 85% in 15 min, held 3 min, 100 µL/min. The conditions noted are these: column: Zorbax Extend-C18 2.1 x 50 mm; eluents: water / acetonitrile, 0.1% formic acid. Summed up:
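Data were gathered over 3 months by HPLC coupled to a quadrupole time-of-flight mass spectrometer, operated in positive and negative ionization mode. Mixtures of ~100 pure standards ran on a Zorbax Extend-C18 column (2.1 × 50 mm, 1.8 μm) at 100 μL/min, with water and acetonitrile each containing 0.1% formic acid and dead and dwell volumes of 40 μL and 900 μL. Retention time was read from adduct peaks picked by computer and checked manually.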
`O=C(Nc1ccc(F)cc1Cl)C1CCc2nc(N3CCOCC3)ncc2C1` (centres undefined) yielded an RP-LC retention time of 793 s. `Cc1cc2nn(CC(=O)Nc3ccc(F)c(Cl)c3)c(=O)n2c(Nc2ccccc2)n1` displayed an RP-LC retention time of 1070 s. `COCCN(CCNC(=O)c1cc(-c2ccccn2)nc2ccccc12)Cc1ccco1` came in with an RP-LC retention time of 660 s. `COc1ccc(-c2nocc2CCC(=O)O)cc1`: the RP-LC retention time worked out at 712 s. The value for `Cc1ccc(NC(=O)CN2C(=O)C3CCCCN3c3ccc(S(=O)(=O)N(C)C)cc32)c(C)c1` (centres undefined) was 994 s. Consider `CN(C)C(=O)C1CCN(c2nc3ccc(-c4ccc(F)cc4)nc3s2)CC1`, for which the RP-LC retention time was found to be 912 s.

`Cc1cc(N)n(-c2nc(C)nc3sc4c(c23)CCC(C)C4)n1` (centres undefined) yielded an RP-LC retention time of 857 s.

In turn, `CS(=O)(=O)N(C1CCOCC1)C1CN(C(=O)Cc2c[nH]c3ccccc23)C1` returned an RP-LC retention time of 667 s. The compound `O=C(O)c1cn(-c2ccc3c(c2)OCO3)nn1` displayed an RP-LC retention time of 645 s. The value for `CC(C)S(=O)(=O)c1ccc(CC(=O)Nc2cc(-c3cccs3)nn2CCO)cc1` was 701 s; that for `CCn1nc(CNC(=O)c2ccc(Br)o2)c2ccccc21` was 881 s; that for `O=C(Nc1cccc(Cl)c1)Nc1ccc2nc3n(c(=O)c2c1)CCC3` was 736 s. In the case of `O=C(Nc1ccc(Cl)c(C(F)(F)F)c1)C(=O)c1ccc[nH]1` it was 1050 s. In the case of `Cc1ccc(Oc2cccc(C(=O)Nc3ccc(-c4csc(C)n4)cc3)c2)nn1` it was 751 s; in that of `Cc1noc(-c2ccc(OC3CN(C(=O)NC4CCCC4)C3)cc2)n1`, 801 s; in that of `COc1ccc(-c2nnc(Cc3nc(-c4ccc(C)c(C)c4)no3)o2)cc1`, 1110 s. As to `O=C(NCCCN1CCCC1)c1ccc2nc(Cc3ccccc3)oc2c1`, the RP-LC retention time was determined as 642 s.

Compound `CCCNC(=O)C1CCN(c2ccc(SCC(=O)NCCc3ccc(Cl)cc3)nn2)CC1` registered an RP-LC retention time of 663 s. The value for `O=c1ccc2cc(S(=O)(=O)N3CCN(c4ccccn4)CC3)ccc2[nH]1` was 581 s; that for `COCCn1c(C2CCN(C(=O)c3cc(Cl)ccc3OC)C2)nc2ccncc21` (centres undefined) was 561 s. The value for `O=C(NCc1ccccc1)N1CCc2nc(-c3ccccc3)ncc2C1` was 848 s.

In turn, `COC(=O)c1ncoc1-c1ccccc1C(=O)NC1CCCC1` came in with an RP-LC retention time of 699 s. In the case of `Cn1nccc1-c1cccc(-c2noc(-c3cc(F)ccc3Cl)n2)c1` it was 1190 s; in that of `Fc1ccccc1CNc1nnc(-c2nc(C3CC3)no2)c2ccccc12`, 952 s; in that of `CN1CCN(CC2CCC3(CCN(S(=O)(=O)c4ccc(C(C)(C)C)cc4)CC3)O2)CC1` (centres undefined), 665 s. In the case of `CCC(=O)N1CCc2c(C(=O)N3CCN(c4ccccc4)CC3)cccc21` it was 829 s; in that of `O=C(NCc1cccs1)c1nnc(-c2ccc(S(=O)(=O)N3CCOCC3)cc2)o1`, 804 s. `Clc1cccc(-c2csc(Cc3nc(-c4ccc5c(c4)OCO5)no3)n2)c1` displayed an RP-LC retention time of 1260 s.

Regarding `Cc1ccc(Nc2c(-c3ccc(Br)cc3)nc3cnccn23)cc1`, the RP-LC retention time was 1100 s. The value for `CCCc1cc(=O)oc2cc(C)cc(OCC(=O)N[C@H](C(=O)O)C(C)C)c12` was 806 s; that for `Cc1ccc2[nH]c(=O)c(CCC(=O)NCCc3ccccn3)cc2c1` was 577 s; that for `CN1CCc2[nH]cnc2C12CCN(C(=O)Nc1ccc(Cl)cc1F)C2` (centres undefined) was 567 s. In the case of `COC1C(=O)N(CC2CC2)C12CCN(Cc1ccc(F)c(F)c1)CC2` (centres undefined) it was 623 s; in that of `O=C(CN1CCN(Cc2ccccc2Cl)CC1)Nc1nc(-c2ccccc2)cs1`, 747 s. Take `Cc1ccc(NC(=O)C2CCN(S(C)(=O)=O)c3ccccc3O2)cc1C` (centres undefined): the RP-LC retention time turned out to be 945 s. The value for `CC(CC(=O)Nc1ccccc1Cl)S(=O)(=O)c1ccc2c(c1)NC(=O)CCS2` (centres undefined) was 761 s.

As for `CCCCN1CCN(C(=O)COc2ccc(NC(=O)C3CC3)cn2)CC1`, the RP-LC retention time was 570 s.

As to `CC1CCCN(CC2CCN(S(=O)(=O)c3ccc(F)cc3Cl)CC2)C1` (centres undefined), the RP-LC retention time is 673 s. The compound `CCCCn1c(=O)c2ccccc2n(Cc2nc(-c3ccc4c(c3)OCO4)no2)c1=O` returned an RP-LC retention time of 1130 s. For `Cc1ccc2ncn(C3CCN(S(=O)(=O)c4ccc(F)cc4F)CC3)c(=O)c2c1`, the RP-LC retention time was 904 s. In the case of `CN(C)CCCNC(=O)C1CCN(c2nc3ccc(-c4cccs4)nc3s2)CC1` it was 647 s. In turn, `NC(=O)c1ccc2c(c1)CCN2C(=O)C1CCCC1` yielded an RP-LC retention time of 698 s. Take `O=C(NC1CCCCC1)C1CCN(Cc2cc3ccccc3n2Cc2ccccc2Cl)CC1`: the RP-LC retention time was determined as 847 s. For the compound `Cn1cc(-c2ccncc2)cc1C(=O)NCc1ccccc1Br`, the RP-LC retention time amounted to 655 s. `CC(C)CNC(=O)C1CCCN(c2nc3ccsc3c(=O)n2Cc2ccc(F)cc2)C1` (centres undefined) gave an RP-LC retention time of 912 s. Compound `Cc1nn(-c2ccc(N3CCOCC3)nn2)c(C)c1CCC(=O)NCCCc1ccco1` showed an RP-LC retention time of 692 s. Compound `COc1ccc(NC(=O)N2CCN(c3cc(-c4ccc(OC)c(OC)c4)ncn3)CC2)cc1` came in with an RP-LC retention time of 620 s.

Turning to `CCOc1ccccc1N1CCN(C(=O)Cn2ccc3c(c(C)nn3-c3ccccc3)c2=O)CC1`, the RP-LC retention time stood at 844 s. `CCOC(=O)c1cnc2nc(C)ccc2c1Nc1cc(F)ccc1Cl` displayed an RP-LC retention time of 764 s. The value for `CCCNc1cc(N2CCCC(CCC(=O)Nc3ccc4c(c3)OCO4)C2)ncn1` (centres undefined) was 691 s; that for `CCOC(=O)c1c(C)[nH]c(C(=O)N2CCCC(C(=O)NCCc3ccc(OCC)cc3)C2)c1C` (centres undefined) was 866 s; that for `O=C(CN1C(=O)C(C(=O)N2CCCC2)Sc2ccccc21)NCc1ccc(Cl)cc1` (centres undefined) was 948 s. Turning to `CCC(C)NC(=O)N1CCCN(C2=NS(=O)(=O)C(c3ccc(F)cc3)=C2C)CC1` (centres undefined), the RP-LC retention time was found to be 787 s. In the case of `CCCC(=O)N1CCC2(CC1)NC(=O)c1ccccc1O2`, the RP-LC retention time amounted to 688 s. In the case of `CCN(C(=O)c1ccccc1Cl)c1nc(-c2ccccc2)cs1` it was 1310 s.

As to `CCOC(=O)c1cc2n(n1)CC(C)(C(=O)NCc1ccc(C)cc1)N(C1CC1)C2=O` (centres undefined), the RP-LC retention time amounted to 786 s. The value for `Cc1nc2cccnc2n1C1CCN(C(=O)Nc2ccc(F)cc2)CC1` was 640 s; that for `O=C(Nc1nnc(SCC(=O)N2CCc3ccccc32)s1)NC1CCCCC1` was 839 s; that for `CCN1c2ccc(C)cc2C(=O)NC12CCN(C(=O)c1ccc(F)c(F)c1)CC2` was 826 s.

`CCc1sc(NC(=O)C2CC(=O)N(CCc3c[nH]c4ccc(Cl)cc34)C2)nc1-c1ccccc1` (centres undefined) gave an RP-LC retention time of 1060 s.

As to `COc1ccc(Cn2c(=O)n(C)c3ncncc32)cc1F`, the RP-LC retention time turned out to be 683 s. Consider `CC(C)Cc1cc(-c2nn3c(COc4ccc(F)cc4)nnc3s2)n[nH]1`, for which the RP-LC retention time was determined as 936 s. In the case of `O=C(NC1CCCCC1)c1ccc(Nc2c(-c3ccccc3)nc3cnccn23)cc1`, the RP-LC retention time is 802 s. The value for `O=C1NCCCCCCN(C(=O)Nc2ccc(F)cc2)[C@H]2CCC[C@@H]12` was 780 s.

In the case of `CCCOc1ccc(-c2noc(Cc3nc(-c4ccccc4)cs3)n2)cc1`, the RP-LC retention time was determined as 1340 s. Consider `CSc1ncccc1C(=O)N1CCc2nc(C)ncc2C1`, for which the RP-LC retention time was 606 s. In the case of `CCOC(=O)c1cc(C2CC2)nc2c1c(=O)n(CC(=O)NC1CCCC1)c(=O)n2C` it was 952 s; in that of `O=C(NC1CCN(Cc2ccccc2)CC1)c1cc2n(n1)CCCN(Cc1ccc(F)cc1)C2=O`, 658 s; in that of `CCN1CCN(c2c(S(=O)(=O)c3ccc(C)c(C)c3)cnc3cc(OC)c(OC)cc23)CC1`, 629 s. The value for `CCCC(=O)N1CCC(C(=O)N2c3ccccc3CC2C)CC1` (centres undefined) was 794 s; that for `COCCCNC(=O)c1cc(-c2ccc(C)cc2)nc2n[nH]c(-c3ccc(C)cc3)c12` was 881 s. In the case of `O=C(c1cccs1)N1[C@H]2CC[C@@H]1c1cnc(-c3ccc(F)cc3)nc1C2` it was 979 s. In turn, `COc1ccc(NC(=O)c2cc3c(=O)oc4ccccc4c3n2C)cc1OC` registered an RP-LC retention time of 850 s. The value for `CCn1ccc(C(=O)N2CC(Oc3ccc(-c4nc(-c5ccccc5)no4)cc3)C2)n1` was 1130 s. Compound `O=C1NCCCn2cc(S(=O)(=O)Nc3ccc(Cl)cc3F)cc21` displayed an RP-LC retention time of 678 s.

Compound `CN(C1CCc2nn(C)c(=O)n2CC1)S(=O)(=O)c1ccccc1Cl` (centres undefined) displayed an RP-LC retention time of 865 s.

`Cc1ccc(-c2csc(NC(=O)COc3ccc(C)cc3Br)n2)cc1` showed an RP-LC retention time of 1290 s. The compound `CCC(=O)N(C1CCOCC1)C1CCN(S(=O)(=O)c2cc(C)ccc2C)CC1` registered an RP-LC retention time of 908 s. The value for `CCC(C)NC(=O)C1CCN(S(=O)(=O)c2c(C)nn(-c3ccc(F)cc3)c2C)CC1` (centres undefined) was 842 s.
